Values of other authors in patent US20060104997A1, “Monoterpene compositions and uses thereof” (priority 2001, published 2006).

Tested on: advanced N-methyl-N-nitrosourea-induced rat mammary carcinoma

C=C(C)C1CC=C(CO)CC1 (stereo not shown) [perillyl alcohol, 1-hydroxymethyl-4-isopropenyl-1-cyclohexene]
activity relative to limonene: approximately 5 fold
